Measured values as given in patent US10323027B2, “2,3-dihydro-4H-1,3-benzoxazin-4-one derivatives as modulators of cholinergic muscarinic M1 receptor” (Takeda Pharmaceutical Company Limited, priority 2015, dated 2019).
Counter-ions that a name gives are not always drawn.

Biological target: T1, human M1 receptor (hCHRM1) (Homo sapiens, UniProt P11229)
T1 construct: expressed in transfected cells
T1 sequence (P11229 1-460): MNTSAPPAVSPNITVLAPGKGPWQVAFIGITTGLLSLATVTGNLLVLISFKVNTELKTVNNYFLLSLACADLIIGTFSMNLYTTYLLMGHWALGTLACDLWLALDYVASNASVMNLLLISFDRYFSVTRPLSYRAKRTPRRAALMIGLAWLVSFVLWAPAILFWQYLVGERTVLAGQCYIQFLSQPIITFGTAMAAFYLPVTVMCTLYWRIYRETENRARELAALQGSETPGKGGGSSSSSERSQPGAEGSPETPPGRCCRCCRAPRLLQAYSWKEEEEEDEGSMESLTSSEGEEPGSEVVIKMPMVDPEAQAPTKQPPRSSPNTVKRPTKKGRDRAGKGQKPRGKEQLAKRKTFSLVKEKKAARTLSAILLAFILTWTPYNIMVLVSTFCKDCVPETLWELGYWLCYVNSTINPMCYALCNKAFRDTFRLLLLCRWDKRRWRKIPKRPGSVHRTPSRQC
Assay: Measurement of M1 receptor positive allosteric modulator (M1PAM) activity, Ca2+ fluorescence by FDSS/μ cell (Experimental Example 2)
Type: cell-based
Conditions: for activity (%) at 10 μM: 10 μM test compound, 100% = acetylcholine 1 μM, 0% = DMSO; for EC50: inflection point of concentration-dependent curve, in presence of acetylcholine at EC20 (0.8-1.0 nM), CHO-K1 cells expressing hCHRM1, read-out: IP value
Protocol: Measurement of M1 Receptor Positive Allosteric Modulator (M1PAM) Activity
The activity of a test compound in the presence of acetylcholine at EC20 concentration (final concentration 0.8-1.0 nM), which affords an action corresponding to about 20% of the maximum activity, was measured as PAM activity. The method is as follows. CHO-K1 cells stably expressing a human M1 receptor (hCHRM1) were plated on a 384-well black clear bottom plate (BD Falcon) at 5,000 cells/well, and cultured in an incubator at 37° C., 5% CO2 for 1 day. The medium in the cell plate was removed, and a dye solution (prepared by adding Recording medium (DOJINDO LABORATORIES) to a final concentration of 1×concentration, Fluo-4 AM (DOJINDO LABORATORIES) to a final concentration of 2.5 μg/mL, Pluronic F127 (DOJINDO LABORATORIES) to a final concentration of 0.08%, and probenecid (DOJINDO LABORATORIES) to a final concentration of 1.25 mM to assay buffer (HBSS (Invitrogen), 20 mM HEPES (Invitrogen), 0.1% BSA (Wako Pure Chemical Industries, Ltd.))) was added at 30 μL/well. The cells were left standing in the incubator at 37° C., 5% CO2 for 30 min, and further left standing at room temperature for 30 min. A test compound prepared by diluting with assay buffer containing 3.2-4.0 nM acetylcholine was added at 10 μL/well, and the fluorescence was measured by FDSS/μ cell (Hamamatsu Photonics K.K.) for 1 min every 1 second. With the definition that the amount of change in the fluorescence on addition of acetylcholine (final concentration 1 μM) is 100% and that on addition of DMSO instead of a test compound is 0%, the activity (%) of the test compound was calculated, and the inflection point in the concentration-dependent curve of the test compound was calculated as IP values.

Row | activity (%) at 10 μM [%] | EC50 [nM] | SMILES
1 | 113 | 6.9 | Cc1c(Cc2ccc(-n3cccn3)nc2)cc2c(c1Cl)OCN([C@H]1COCC[C@@H]1O)C2=O [Example 106, 1,5-anhydro-2-(8-chloro-7-methyl-4-oxo-6-((6-(1H-pyrazol-1-yl)pyridin-3-yl)methyl)-2H-1,3-benzoxazin-3(4H)-yl)-2,4-dideoxy-L-threo-pentitol]
2 | 103 | 15 | Cc1cc2c(cc1Cc1ccc(-n3cccn3)nc1)C(=O)N([C@H]1COCC[C@@H]1O)CO2 [Example 103, 1,5-anhydro-2,4-dideoxy-2-(7-methyl-4-oxo-6-((6-(1H-pyrazol-1-yl)pyridin-3-yl)methyl)-2H-1,3-benzoxazin-3(4H)-yl)-L-threo-pentitol]
3 | 99 | 9.1 | C#Cc1ccc(Cc2cc3c(c(C)c2C)OCN([C@H]2COCC[C@@H]2O)C3=O)cn1 [Example 112, 1,5-anhydro-2,4-dideoxy-2-(6-((6-ethynylpyridine-3-yl)methyl)-7,8-dimethyl-4-oxo-2H-1,3-benzoxazin-3(4H)-yl)-L-threo-pentitol]
4 | 102 | 13 | Cc1cc2c(cc1Cc1ccc(-n3cccn3)nc1)C(=O)N([C@H]1CCCC[C@@H]1O)CO2 (single isomer, unassigned) [Example 95]
5 | 102 | 4 | Cc1cc(-c2ccc(Cc3cc4c(c(F)c3C)OCN([C@H]3CCC[C@@H]3O)C4=O)cn2)ccn1 [Example 90, 8-fluoro-3-((1S,2S)-2-hydroxycyclopentyl)-7-methyl-6-((2′-methyl-2,4′-bipyridin-5-yl)methyl)-2,3-dihydro-4H-1,3-benzoxazin-4-one]
6 | 91 | 61 | Cc1c(Cc2ccc(-n3cccn3)cc2)cc2c(c1F)OCN(CC(C)(C)O)C2=O [Example 101, 8-fluoro-3-(2-hydroxy-2-methylpropyl)-7-methyl-6-(4-(1H-pyrazol-1-yl)benzyl)-2,3-dihydro-4H-1,3-benzoxazin-4-one]
7 | 99 |  | Cc1c(Cc2ccc(-n3cccn3)nc2)cc2c(c1Cl)OCN([C@H]1CCC[C@@H]1O)C2=O (single isomer, unassigned) [Example 97, 8-chloro-3-(trans-2-hydroxycyclopentyl)-7-methyl-6-((6-(1H-pyrazol-1-yl)pyridin-3-yl)methyl)-2,3-dihydro-4H-1,3-benzoxazin-4-one (optical isomer: longer retention time)]
8 | 103 | 4.6 | Cc1nn(C)cc1-c1ccc(Cc2cc3c(c(F)c2C)OCN([C@H]2CCC[C@@H]2O)C3=O)cn1 [Example 93, 6-((6-(1,3-dimethyl-1H-pyrazol-4-yl)pyridin-3-yl)methyl)-8-fluoro-3-((1S,2S)-2-hydroxycyclopentyl)-7-methyl-2,3-dihydro-4H-1,3-benzoxazin-4-one]
9 | 97 | 2.9 | Cc1c(Cc2ccc(-c3ccn(C)n3)nc2)cc2c(c1Cl)OCN([C@H]1CCC[C@@H]1O)C2=O [Example 99, 8-chloro-3-((1S,2S)-2-hydroxycyclopentyl)-7-methyl-6-((6-(1-methyl-1H-pyrazol-3-yl)pyridin-3-yl)methyl)-2,3-dihydro-4H-1,3-benzoxazin-4-one]
10 | 99 | 5.5 | CCc1cc2c(cc1Cc1ccc(-n3cccn3)cc1)C(=O)N([C@H]1COCC[C@@H]1O)CO2 [Example 107, 1,5-anhydro-2,4-dideoxy-2-(7-ethyl-4-oxo-6-(4-(1H-pyrazol-1-yl)benzyl)-2H-1,3-benzoxazin-3(4H)-yl)-L-threo-pentitol]
11 | 103 | 4.9 | Cc1c(Cc2ccc(-n3cccn3)nc2)cc2c(c1C)OCN([C@H]1COCC[C@@H]1O)C2=O [Example 98, 1,5-anhydro-2,4-dideoxy-2-(7,8-dimethyl-4-oxo-6-((6-(1H-pyrazol-1-yl)pyridin-3-yl)methyl)-2H-1,3-benzoxazin-3(4H)-yl)-L-threo-pentitol]
12 | 96 | 7 | Cc1c(Cc2ccc3nn(C)cc3c2)cc2c(c1C)OCN([C@H]1COCC[C@@H]1O)C2=O [Example 116, 1,5-anhydro-2,4-dideoxy-2-(7,8-dimethyl-6-((2-methyl-2H-indazol-5-yl)methyl)-4-oxo-2H-1,3-benzoxazin-3(4H)-yl)-L-threo-pentitol]
13 | 99 | 4.4 | Cc1c(Cc2ccc(-c3ccn(C)n3)cc2)cc2c(c1C)OCN([C@H]1COCC[C@@H]1O)C2=O [Example 100, 1,5-anhydro-2,4-dideoxy-2-(7,8-dimethyl-6-(4-(1-methyl-1H-pyrazol-3-yl)benzyl)-4-oxo-2H-1,3-benzoxazin-3(4H)-yl)-L-threo-pentitol]
14 | 101 | 3.4 | Cc1c(Cc2ccc(-c3ccn(C)n3)nc2)cc2c(c1F)OCN([C@H]1CCCC[C@@H]1O)C2=O [Example 92, 8-fluoro-3-((1S,2S)-2-hydroxycyclohexyl)-7-methyl-6-((6-(1-methyl-1H-pyrazol-3-yl)pyridin-3-yl)methyl)-2,3-dihydro-4H-1,3-benzoxazin-4-one]
15 | 97 | 5.7 | COc1ccc(Cc2cc3c(c(Cl)c2C)OCN([C@H]2COCC[C@@H]2O)C3=O)cn1 [Example 109, 1,5-anhydro-2-(8-chloro-6-((6-methoxypyridin-3-yl)methyl)-7-methyl-4-oxo-2H-1,3-benzoxazin-3(4H)-yl)-2,4-dideoxy-L-threo-pentitol]
16 | 116 | 47 | CCc1cc2c(cc1Cc1ccc(OC)nc1)C(=O)N([C@H]1COCC[C@@H]1O)CO2 [Example 118, 1,5-anhydro-2,4-dideoxy-2-(7-ethyl-6-((6-methoxypyridin-3-yl)methyl)-4-oxo-2H-1,3-benzoxazin-3(4H)-yl)-L-threo-pentitol]
17 | 98 | 8.7 | Cc1c(Cc2ccc(-n3cccn3)nc2)cc2c(c1F)OCN([C@H]1COCC[C@@H]1O)C2=O [Example 102, 1,5-anhydro-2,4-dideoxy-2-(8-fluoro-7-methyl-4-oxo-6-((6-(1H-pyrazol-1-yl)pyridin-3-yl)methyl)-2H-1,3-benzoxazin-3(4H)-yl)-L-threo-pentitol]
18 | 99 | 4.8 | C=Cc1ccc(Cc2cc3c(c(C)c2C)OCN([C@H]2COCC[C@@H]2O)C3=O)cn1 [Example 110, 1,5-anhydro-2,4-dideoxy-2-(7,8-dimethyl-4-oxo-6-((6-vinylpyridine-3-yl)methyl)-2H-1,3-benzoxazin-3(4H)-yl)-L-threo-pentitol]
19 | 102 | 12 | Cc1c(Cc2ccc(-c3ccnc(F)c3)nc2)cc2c(c1F)OCN([C@H]1CCC[C@@H]1O)C2=O [Example 89, 8-fluoro-6-((2′-fluoro-2,4′-bipyridin-5-yl)methyl)-3-((1S,2S)-2-hydroxycyclopentyl)-7-methyl-2,3-dihydro-4H-1,3-benzoxazin-4-one]
20 | 98 | 5.6 | Cc1cc(-c2ccc(Cc3cc4c(c(F)c3C)OCN([C@H]3CCC[C@@H]3O)C4=O)cc2)cnn1 [Example 105, 8-fluoro-3-((1S,2S)-2-hydroxycyclopentyl)-7-methyl-6-(4-(6-methylpyridazin-4-yl)benzyl)-2,3-dihydro-4H-1,3-benzoxazin-4-one hydrochloride]
21 | 99 | 38 | Cc1c(Cc2ccc(-n3nccn3)cc2)cc2c(c1C)OCN([C@H]1COCC[C@@H]1O)C2=O [Example 142, 1,5-anhydro-2,4-dideoxy-2-(7,8-dimethyl-4-oxo-6-(4-(2H-1,2,3-triazol-2-yl)benzyl)-2H-1,3-benzoxazin-3(4H)-yl)-L-threo-pentitol]

Row | SMILES | activity (%) at 10 μM [%] | EC50 [nM]
22 | Cc1c(Cc2ccc(C#C[Si](C)(C)C)nc2)cc2c(c1C)OCN([C@H]1COCC[C@@H]1O)C2=O [Example 111, 1,5-anhydro-2,4-dideoxy-2-(7,8-dimethyl-4-oxo-6-((6-((trimethylsilyl)ethynyl)pyridin-3-yl)methyl)-2H-1,3-benzoxazin-3(4H)-yl)-L-threo-pentitol] | 96 | 68
